Results reported in patent US10030225B2, “Cell culture media” (Merck Patent GmbH, priority 2012, dated 2018).
Where a name gives a salt, the structure may show the parent alone.

Key:
Solubility in water = conditions: for solubility (in words): comparison with tyrosine, refers to table 1; for solubility at 20° C. / solubility at 25° C. / solubility at 30° C.: in water
cells [1] = assay: Batch experiment in chemically defined medium where tyrosine was replaced by PTyr salts; assay type: cell-based
Source text: Batch experiment in chemically defined medium where tyrosine was replaced by PTyr salts. PTyr means (S)-2-Amino-3-(4-phosphonooxy-phenyl)-propionic-acid salt.

Recombinant CHO cells [2] = assay: Fed batch process with neutral pH feed containing phospho-Tyr salts, 30 mL spin tubes; assay type: cell-based; conditions: 30 mM in feed at pH 7.0; control tyrosine 2Na+ and Cysteine in separate feed at pH 11
Protocol: FIGS. 5 and 6 show the viable cell density and IgG concentration over time in a fed batch process. Recombinant CHO cells are grown in fully chemically defined basal media and a feed containing phospho-Tyr salts at pH 7.0 is added on day 3; 5, 7 and 9 (addition of % v/v of 3%; 6% 6% 6%). […]. In these cases, Cysteine is still added as a separate feed at pH 11.
The process is performed in 30 mL spin tubes at 37° C., 5% CO2, agitation 320 rpm. For control, according to the state of the art, tyrosine 2Na+ and Cysteine are solubilized at pH 11 in a separate feed and added at day 3; 5; 7; 9 in %(V/V) of 0.3%, 0.6%, 0.6% and 0.6%.
The glucose concentration is measured every day and adjusted accordingly to maintain a concentration>2 g/L

Recombinant CHO cells [3] = assay: Fed batch process with feed containing S-sulfocysteine and PTyr 2Na+ at pH 7.0, 1.2 L bioreactors; assay type: cell-based; conditions: main feed pH 7.0, in combination with PTyr 2Na+; control tyrosine 2Na+ and Cysteine at pH 11
Protocol: FIGS. 7 and 8 show the viable cell density and IgG concentration over time in a fed batch process. Recombinant CHO cells are grown in fully chemically defined basal media and a feed containing both S-sulfocysteine and PTyr 2Na+ at pH 7.0. Feed is added on day 3; 5, 7, 9 and 14 (addition of % v/v of 3%; 6% 6% 6%, 3%). The process is performed in 1.2 L bioreactors at 37° C., pH 7.0, 50% dissolved oxygen, agitation 140 rpm. For control, according to the state of the art, tyrosine 2Na+ and Cysteine are solubilized at pH 11 in a separate feed and added at day 3; 5; 7; 9, 14 in %(V/V) of 0.3%, 0.6%, 0.6%, 0.6%, 0.3%. The glucose concentration is measured every day and adjusted accordingly to maintain a concentration>2 g/L

cells [4] = assay: Batch experiment in chemically defined medium where Cysteine was replaced by S-sulfocysteine sodium salt; assay type: cell-based; conditions: 1.5 and 3 mM, equivalent concentration to Cysteine
Protocol: Batch experiment in chemically defined medium where Cysteine was replaced by S-sulfocysteine sodium salt (equivalent concentration). The CDM powder used as basis was depleted in Cysteine and Cystine and supplemented during reconstitution with Cysteine for the control conditions (1.5 and 3 mM) or with S-sulfocysteine sodium salt for the test conditions (1.5 and 3 mM).

N[C@@H](Cc1ccc(OP(=O)([O-])O)cc1)C(=O)O.[Na+] [D3]
solubility (in words) (Solubility in water): higher solubility
solubility at 20° C. (Solubility in water): 5.5%
solubility at 25° C. (Solubility in water): 5.3%
solubility at 30° C. (Solubility in water): 11.4%

(S)-2-Amino-3-(4-phosphonooxy-phenyl)-propionic-acid salt [PTyr]
maximum viable cell density versus control (cells [1]; PTyr 4.5 mM in the CDM versus 1 mM tyrosine in the control): even higher
extended growth (cells [1]; PTyr 4.5 mM in the CDM versus control): 2 days
cell growth (cells [1]; PTyr at the same concentration as Tyrosine in the medium (1 mM in the control)): cells didn't grow

N[C@@H](Cc1ccc(OP(=O)([O-])O)cc1)C(=O)O.[K+] [PTyr Potassium salt, (S)-2-Amino-3-(4-phosphonooxy-phenyl)-propionic-acid mono potassium salt]
impact on growth (viable cell density) (Recombinant CHO cells [2]): no negative impact
impact on titer (IgG concentration) (Recombinant CHO cells [2]): no negative impact

N[C@H](CSS(=O)(=O)[O-])C(=O)[O-].[Na+].[Na+] [S-sulfocysteine sodium salt, (S)-2-amino-3-sulfosulfanylpropanoic acid sodium salt]
growth (viable cell density) in comparison to the control (Recombinant CHO cells [3]): extended growth
titer (IgG concentration) in comparison to the control (Recombinant CHO cells [3]): significant increase
cell growth versus Cysteine control (cells [4]): comparable growth

N[C@@H](Cc1ccc(OP(=O)(O)O)cc1)C(=O)O [PTyr Magnesium salt, (S)-2-Amino-3-(4-phosphonooxy-phenyl)-propionic-acid 2:1-magnesium salt]
impact on growth (viable cell density) (Recombinant CHO cells [2]): no negative impact
impact on titer (IgG concentration) (Recombinant CHO cells [2]): no negative impact

N[C@@H](Cc1ccc(OP(=O)([O-])[O-])cc1)C(=O)O.[Na+].[Na+] [D4]
solubility (in words) (Solubility in water): very good solubility
solubility at 20° C. (Solubility in water): 9.8%
solubility at 25° C. (Solubility in water): 10.1%
solubility at 30° C. (Solubility in water): 9.2%
impact on growth (viable cell density) (Recombinant CHO cells [2]): no negative impact
impact on titer (IgG concentration) (Recombinant CHO cells [2]): no negative impact
